Assay results as given in patent publication US20220033397A1, “PHARMACEUTICAL COMPOUNDS AND THEIR USE AS INHIBITORS OF UBIQUITIN SPECIFIC PROTEASE 19 (USP19)” (ALMAC DISCOVERY LIMITED, priority 2018, published 2022).
pIC50: −log10 of the molar value.

These compounds were tested against T1, Full-length USP19 (Homo sapiens, UniProt O94966) (assay: USP19 fluorescence polarisation (FP) homogeneous assay with Ubiquitin-Lys-TAMRA substrate). Details: 2.5 nM USP19, 30 min pre-incubation, average of at least two duplicate experiments.
T1 construct: Full-length USP19 was purchased from Boston Biochem (E-576); purchased Boston Biochem E-576
T1 sequence (O94966 1-1318): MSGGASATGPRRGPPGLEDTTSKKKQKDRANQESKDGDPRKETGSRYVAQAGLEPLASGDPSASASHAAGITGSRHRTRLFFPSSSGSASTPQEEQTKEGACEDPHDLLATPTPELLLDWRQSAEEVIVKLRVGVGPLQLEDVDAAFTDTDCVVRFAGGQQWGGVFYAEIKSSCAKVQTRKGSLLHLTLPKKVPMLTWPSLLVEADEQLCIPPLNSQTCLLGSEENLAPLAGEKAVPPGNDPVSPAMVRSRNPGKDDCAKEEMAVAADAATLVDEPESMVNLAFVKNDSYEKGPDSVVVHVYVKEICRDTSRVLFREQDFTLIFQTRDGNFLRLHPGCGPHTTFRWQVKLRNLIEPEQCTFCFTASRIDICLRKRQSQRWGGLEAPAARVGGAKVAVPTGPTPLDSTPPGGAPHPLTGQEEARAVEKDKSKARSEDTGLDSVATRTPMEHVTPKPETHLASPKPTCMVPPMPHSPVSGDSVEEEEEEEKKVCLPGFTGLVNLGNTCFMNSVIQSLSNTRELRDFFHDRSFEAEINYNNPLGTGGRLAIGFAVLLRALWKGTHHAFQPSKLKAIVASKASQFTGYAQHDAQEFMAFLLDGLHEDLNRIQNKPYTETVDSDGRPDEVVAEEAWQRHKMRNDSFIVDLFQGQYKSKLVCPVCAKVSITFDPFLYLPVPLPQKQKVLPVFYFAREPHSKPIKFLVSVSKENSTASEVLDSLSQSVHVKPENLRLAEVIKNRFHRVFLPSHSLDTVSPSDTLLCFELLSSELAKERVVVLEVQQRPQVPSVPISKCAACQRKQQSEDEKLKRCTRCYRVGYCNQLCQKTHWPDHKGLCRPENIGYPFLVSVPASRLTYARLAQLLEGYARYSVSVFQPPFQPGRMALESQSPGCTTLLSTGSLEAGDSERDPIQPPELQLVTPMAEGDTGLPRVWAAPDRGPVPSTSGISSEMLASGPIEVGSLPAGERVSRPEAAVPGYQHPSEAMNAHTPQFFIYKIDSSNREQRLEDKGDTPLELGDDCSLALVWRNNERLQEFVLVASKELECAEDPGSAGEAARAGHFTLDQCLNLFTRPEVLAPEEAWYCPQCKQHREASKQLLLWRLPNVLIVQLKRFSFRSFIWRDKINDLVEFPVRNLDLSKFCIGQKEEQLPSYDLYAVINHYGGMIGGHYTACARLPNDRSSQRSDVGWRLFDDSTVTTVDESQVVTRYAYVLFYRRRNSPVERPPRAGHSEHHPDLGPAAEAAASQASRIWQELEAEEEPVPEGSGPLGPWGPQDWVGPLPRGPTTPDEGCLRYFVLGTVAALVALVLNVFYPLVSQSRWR
Assay type: biochemical
Procedure, shortened: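 Full-length USP19 preincubated 30 min at RT with inhibitor (200 μM to 2 μM series, 8–18 points) before adding 500 nM Ubiquitin-Lys-TAMRA substrate.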

pIC50, > 6.30:
O=C(N1CC[C@@](O)(Cn2cnc(-c3cccc(F)c3)cc2=O)C2(CCCC2)C1)N1CCNC[C@H]1c1cccc(F)c1 [Example 375, 6-(3-Fluorophenyl)-3-(((S)-7-((R)-2-(3-fluorophenyl)pipera-zine-1-carbonyl)-10-hydroxy-7-aza-spiro[4.5]decan-10-yl)methyl)pyrimidin-4(3H)-one]
O=C(N1CC[C@@](O)(Cn2cnc(-c3cccc(F)c3)cc2=O)C2(CCCC2)C1)N1CCNC[C@H]1c1cc(F)ccc1F [Example 376, 3-(((S)-7-((R)-2-(2,5-Difluorophenyl)piper-azine-1-carbonyl)-10-hydroxy-7-azaspiro[4.5]decan-10-yl)methyl)-6-(3-fluorophenyl)pyrimi-din-4(3H)-one]
O=C(N1CC[C@@](O)(Cn2cnc(C3CC3)cc2=O)C2(CCCC2)C1)N1CCNC[C@H]1c1cccc(F)c1 [Example 377, 6-Cyclopropyl-3-(((S)-7-((R)-2-(3-fluoro-phenyl)piperazine-1-carbonyl)-10-hydroxy-7-aza-spiro[4.5]decan-10-yl)methyl)pyrimidin-4(3H)-one]
O=C(N1CC[C@@](O)(Cn2cnc(C3CC3)cc2=O)C2(CCCC2)C1)N1CCNC[C@H]1c1cc(F)ccc1F [Example 378, 6-Cyclopropyl-3-(((S)-7-((R)-2-(2,5-difluorophenyl)piper-azine-1-carbonyl)-10-hydroxy-7-aza-spiro[4.5]decan-10-yl)methyl)pyrimidin-4(3H)-one]
O=C(N1CC[C@@](O)(Cn2cnc(-c3ccccc3)cc2=O)C2(CCCC2)C1)N1CCNCC1c1ccc(F)c(F)c1 (stereo partly drawn) [Example 379, 3-(((10S)-7-(2-(3,4-Difluorophenyl)piper-azine-1-carbonyl)-10-hydroxy-7-azaspiro[4.5]decan-10-yl)methyl)-6-phenylpyrimidin-4(3H)-one]
COc1cccc(F)c1-c1cc(=O)n(C[C@]2(O)CCN(C(=O)N3CCNC[C@H]3c3ccccc3)CC23CCCC3)cn1 [Example 381, 6-(2-Fluoro-6-meth-oxyphenyl)-3-(((S)-10-hydroxy-7-((R)-2-phenylpiperazine-1-carbonyl)-7-aza-spiro[4.5]decan-10-yl)methyl)pyrimidin-4(3H)-one]
Cc1cccc(F)c1-c1cc(=O)n(C[C@]2(O)CCN(C(=O)N3CCNC[C@H]3c3ccccc3)CC23CCCC3)cn1 [Example 382, 6-(2-Fluoro-6-meth-ylphenyl)-3-(((S)-10-hydroxy-7-((R)-2-phenylpiperazine-1-carbonyl)-7-aza-spiro[4.5]decan-10-yl)methyl)pyrimidin-4(3H)-one]
COc1c(F)cccc1-c1cc(=O)n(C[C@]2(O)CCN(C(=O)N3CCNC[C@H]3c3ccccc3)CC23CCCC3)cn1 [Example 383, 6-(3-Fluoro-2-methoxyphenyl)-3-(((S)-10-hydroxy-7-((R)-2-phenyl-piperazine-1-carbonyl)-7-aza-spiro[4.5]decan-10-yl)methyl)pyrimidin-4(3H)-one]
COc1ccc(F)cc1-c1cc(=O)n(C[C@]2(O)CCN(C(=O)N3CCNC[C@H]3c3ccccc3)CC23CCCC3)cn1 [Example 384, 6-(5-Fluoro-2-methoxyphenyl)-3-(((S)-10-hydroxy-7-((R)-2-phenylpipera-zine-1-carbonyl)-7-azaspiro[4.5]decan-10-yl)methyl)pyrimi-din-4(3H)-one]
O=C(N1CC[C@@](O)(Cn2cnc(-c3cccc(F)c3F)cc2=O)C2(CCCC2)C1)N1CCNC[C@H]1c1ccccc1 [Example 385, 6-(2,3-Difluoro-phenyl)-3-(((S)-10-hydroxy-7-((R)-2-phenylpiperazine-1-carbonyl)-7-aza-spiro[4.5]decan-10-yl)methyl)pyrimidin-4(3H)-one]
Cc1cccc(-c2cc(=O)n(C[C@]3(O)CCN(C(=O)N4CCNC[C@H]4c4cc(F)ccc4F)CC34CCCC4)cn2)c1 [Example 386, 3-(((S)-7-((R)-2-(2,5-Difluorophenyl)piper-azine-1-carbonyl)-10-hydroxy-7-azaspiro[4.5]decan-10-yl)methyl)-6-(m-tolyl)pyrimidin-4(3H)-one]
O=C(N1CC[C@@](O)(Cn2cnc(-c3ccccc3F)cc2=O)C2(CCCC2)C1)N1CCNC[C@H]1c1cc(F)ccc1F [Example 387, 3-(((S)-7-((R)-2-(2,5-Difluorophenyl)piper-azine-1-carbonyl)-10-hydroxy-7-azaspiro[4.5]decan-10-yl)methyl)-6-(2-fluorophenyl)pyrimi-din-4(3H)-one]
COc1ccccc1-c1cc(=O)n(C[C@]2(O)CCN(C(=O)N3CCNC[C@H]3c3cc(F)ccc3F)CC23CCCC3)cn1 [Example 388, 3-(((S)-7-((R)-2-(2,5-Difluoro-phenyl)piperazine-1-carbonyl)-10-hydroxy-7-azaspiro [4.5]decan-10-yl)methyl)-6-(2-meth-oxyphenyl)pyrimi-din-4(3H)-one]
O=C(N1CC[C@@](O)(Cn2cnc(N3CC4CC4C3)cc2=O)C2(CCCC2)C1)N1CCNC[C@H]1c1cc(F)ccc1F (stereo partly drawn) [Example 389, 6-(3-Aza-bicyclo[3.1.0]hexan-3-yl)-3-(((S)-7-((R)-2-(2,5-difluoro-phenyl)piperazine-1-carbonyl)-10-hydroxy-7-aza-spiro[4.5]decan-10-yl)methyl)pyrimidin-4(3H)-one]
C[C@@]1(c2ccccc2)CNCCN1C(=O)N1CC[C@@](O)(Cn2cnc(-c3ccccc3)cc2=O)C2(CCCC2)C1 [Example 390, 3-(((S)-10-Hydroxy-7-((R)-2-methyl-2-phenylpiperazine-1-carbonyl)-7-azaspiro[4.5]decan-10-yl)methyl)-6-phenylpyrimidin-4(3H)-one]
O=C(N1CC[C@@](O)(Cn2ccc(-c3ccccc3F)cc2=O)C2(CCCC2)C1)N1CCNC[C@H]1c1cccc(F)c1 [Example 391, 4-(2-Fluorophenyl)-1-(((S)-7-((R)-2-(3-fluorophenyl)pipera-zine-1-carbonyl)-10-hydroxy-7-azaspiro[4.5]decan-10-yl)methyl)pyri-din-2(1H)-one]
O=C(N1CC[C@@](O)(Cn2cnc(-c3ccccc3F)cc2=O)C2(CCCC2)C1)N1CCNC[C@H]1c1cc(F)cc(F)c1 [Example 392, 3-(((S)-7-((R)-2-(3,5-Difluoro-phenyl)piper-azine-1-carbonyl)-10-hydroxy-7-azaspiro[4.5]decan-10-yl)methyl)-6-(2-fluorophenyl)pyrimi-din-4(3H)-one]
O=C(N1CC[C@@](O)(Cn2cnc(-c3ccccc3)cc2=O)C2(CCCC2)C1)N1CCSC[C@H]1c1cc(F)ccc1F [Example 393, 3-(((S)-7-((R)-3-(2,5-Difluorophenyl)thio-morpholine-4-carbo-nyl)-10-hydroxy-7-azaspiro[4.5]decan-10-yl)methyl)-6-phenylpyrimidin-4(3H)-one]
O=C(N1CC[C@@](O)(Cn2cnc(-c3ccccc3)cc2=O)C2(CCCC2)C1)N1CCS(=O)(=O)C[C@H]1c1cc(F)ccc1F [Example 394, 3-(((S)-7-((R)-3-(2,5-Difluoro-phenyl)-1,1-dioxidothio-morpholine-4-carbonyl)-10-hydroxy-7-aza-spiro[4.5]decan-10-yl)methyl)-6-phenylpyrimidin-4(3H)-one]
N[C@H]1CCN(C(=O)N2CC[C@@](O)(Cn3cnc(-c4ccccc4)cc3=O)C3(CCCC3)C2)[C@H](c2ccccc2)C1 [Example 396, 3-(((S)-7-((2S,4S)-4-Amino-2-phenyl-piperidine-1-car-bonyl)-10-hydroxy-7-azaspiro[4.5]de-can-10-yl)meth-yl)-6-phenyl-pyrimidin-4(3H)-one]
N[C@@H]1CCN(C(=O)N2CC[C@@](O)(Cn3cnc(-c4ccccc4)cc3=O)C3(CCCC3)C2)[C@H](c2ccccc2)C1 [Example 397, 3-(((S)-7-((2S,4R)-4-Amino-2-phenyl-piperidine-1-carbo-nyl)-10-hydroxy-7-azaspiro[4.5]decan-10-yl)methyl)-6-phenylpyrimidin-4(3H)-one]
